Measurements reported in patent publication US20150306269A1, “UPSTREAM HYDROGEN PEROXIDE […]” (The Vincit Company, LLC, priority 2014, published 2015).

What was measured:
bacteria [1] = experiment: Egg shell testing: total plate count of inoculated egg shells after exposure to treated air; format: cell-based; conditions: half egg shells inoculated in broth with about seven log bacteria; 10 minutes exposure; nebulized 3% hydrogen peroxide; swab plated on Tryptic Soy Agar, 24 hours
Method: In preliminary testing, twelve store-bought fresh eggs were prepared by blowing out the contents and cutting the egg shells in half. Twenty-four half shells were inoculated by submersion in a broth solution containing about a seven log concentration bacteria. Egg shells were removed and allowed to air dry. […] The final six shells were designated the control group and were exposed only to untreated air circulated though the sanitation system. The twenty-four half shells were allowed to be exposed to their respective situation for a period of 10 minutes.
Immediately following treatment, approximately 1 square inch swab samples were taken from the surface of each egg shell then serially diluted and plated on Tryptic Soy Agar and incubated for 24 hours to obtain a total plate count.

bacteria [2] = experiment: Chicken wings: total plate count of inoculated chicken wing skin after exposure to treated air; format: cell-based; conditions: chicken wings inoculated in Tryptic Soy Broth with about seven log bacteria; maximum over 10, 30, 45 and 60 seconds treatment; nebulized 3% hydrogen peroxide; Tryptic Soy Agar, 24 hours
Method: Similar testing was performed on chicken wings. Twenty-four store-bought chicken wings were prepared by submersing them in a Tryptic Soy Broth broth solution containing about a seven log concentration of bacteria. The wings were removed and allowed to air dry. The wings were separated into groups of six, one group designated to be exposed to air running through the air sanitation system containing only nebulized 3% hydrogen peroxide, another group exposed to UV light-generated radicals, and the last group exposed to both 3% H2O2 and UV radicals. The final six wings were designated the control group and were exposed only to untreated air circulated though the sanitation system.
Immediately following treatment at times of 10 seconds, 30 seconds, 45 seconds and 60 seconds, approximately 1 square inch of skin on each wing was swabbed with moistened sample sponges. The sponges were stomached in phosphate buffer solution for 2 minutes, then the buffer solution was serially diluted and plated on Tryptic Soy Agar and incubated for 24 hours to obtain a total plate count.

## OO [H2O2, hydrogen peroxide]
Bacteria [1]
  log10 reduction (total plate count): 1.5 log10
Bacteria [2]
  maximum log10 reduction (total plate count): 0.9 log10
